Laboratory results published in US20240391965A1, “STAPLED ANTIMICROBIAL PEPTIDES (STAMPS) AND USES THEREOF” (Lytica Therapeutics, Inc., priority 2021, published 2024).
In brackets after ≈: the same amount, converted by molar mass. Starred links: 1 amine or outer side, 2 acyl side, 3 side chain; linkers in the order of their positions; H or OH if unused. Positions of bridges follow the written chain, without caps; N, C: chain ends. Residues, ends and D or L forms follow the SMILES beside them. 2,2'Bipyridine(5,5'-diCH2) = c1cc(-c2ccc(C[*:2])cn2)ncc1C[*:1]; Naphthalene(2,6-diCH2) = c1cc2cc(C[*:2])ccc2cc1C[*:1]

Key:
[1] = 90 minute cytotoxicity assay (LDH release), renal toxicity; type: cell-based; conditions: 90 minutes of incubation, LDH release; read-out: Inhibitory Concentration at 50% Cytotoxicity (IC50) Human Renal Proximal Tubule Epithelial Cells (RPTEC)
Procedure, shortened: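 RPTEC plated overnight, given fresh medium, then exposed to serial peptide dilutions or vehicle for 90 min at 37° C. Medium LDH measured by 10 min reagent incubation and absorbance at 490 nm.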

[2] = system: Klebsiella pneumoniae (K. pneumoniae); type: cell-based; conditions: microbroth dilution, 20-24 hours at 37° C.
Experimental: (§1) Antimicrobial Activity Assay: The following microbroth dilution protocol was adapted from CLSI to determine the minimum inhibitory concentration (MIC) of StAMPs. Briefly, Mueller-Hinton broth (MHB) or cation-adjusted Mueller-Hinton broth (MHB II) was prepared and autoclaved. Then, a colony of bacterial cells was picked and grown overnight in broth at 37° C. and then diluted and allowed to grow again for 3-4 hours. Serial dilutions of peptide stocks in water (10 μl) were prepared using clear round-bottom polypropylene 96-well plates. Then 90 μl of bacteria in broth was added to give a final inoculum of 5×10^5 CFU/ml. The plates were then covered with porous tape to reduce evaporation and incubated for 20-24 hours at 37° C. The MIC was the minimum peptide concentration at which no visible bacterial growth was observed.

[3] = system: Acinetobacter baumannii (A. baumannii); type: cell-based; conditions: microbroth dilution, 20-24 hours at 37° C.
Experimental: as §1

[4] = system: Pseudomonas aeruginosa (P. aeruginosa); type: cell-based; conditions: microbroth dilution, 20-24 hours at 37° C.
Experimental: as §1

[5] = system: Staphylococcus aureus (S. aureus); type: cell-based; conditions: microbroth dilution, 20-24 hours at 37° C.
Experimental: as §1

[6] = system: Escherichia coli (E. coli); type: cell-based; conditions: microbroth dilution, 20-24 hours at 37° C.
Experimental: as §1

[7] = 48 hours cytotoxicity assay (CellTiter-Glo), liver toxicity; type: cell-based, human; conditions: 48 hours of incubation, CellTiter-Glo; read-out: Inhibitory Concentration at 50% Cytotoxicity (IC50) Human Liver Cells (HepG2)
Procedure, shortened: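 HepG2 cells in EMEM with 10% FBS, allowed to attach 4 h, then exposed to serially diluted StAMPs or vehicle for 48 h at 37 °C. Viability read by CellTiter-Glo luminescence.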

Q: With CC[C@H](C)[C@H](NC(=O)CN)C(=O)N[C@@H](Cc1ccccc1)C(=O)N[C@@H](CO)C(=O)N[C@@H](CCCCN)C(=O)N[C@@H](CC(C)C)C(=O)N[C@@H](C)C(=O)NCC(=O)N[C@@H](CCCCN)C(=O)N[C@H]1CSCc2ccc3cc(ccc3c2)CSC[C@@H](C(=O)NCC(=O)N[C@@H](CC(C)C)C(=O)N[C@@H](CCCCN)C(=O)NCC(N)=O)NC(=O)[C@H]([C@@H](C)CC)NC(=O)[C@H](CC(C)C)NC(=O)[C@H](CC(C)C)NC(=O)[C@H](CC(N)=O)NC(=O)[C@H](CCCCN)NC(=O)[C@H]([C@@H](C)CC)NC1=O [compound 73] (H-GIFSKLAGKCIKNLLICGLKG-NH2; linker 10-17 via Naphthalene(2,6-diCH2); N-terminus assumed) as the molecule, how does the IC50 [1] read?
A: 9 µg/mL (≈ 3.87 µM)

Q: And the “Minimum Inhibitory Concentration (MIC) K. pneumoniae” value [2]?
A: 8 µg/mL

Q: And the “Minimum Inhibitory Concentration (MIC) A. baumannii” value [3]?
A: 4 µg/mL

Q: What about the “Minimum Inhibitory Concentration (MIC) P. aeruginosa” value [4] of the same molecule?
A: 64 µg/mL

Q: What about the “Minimum Inhibitory Concentration (MIC) S. aureus” value [5] of the same molecule?
A: 4 µg/mL

Q: And the “Minimum Inhibitory Concentration (MIC) E. coli” value [6]?
A: 8 µg/mL

Q: What does the source list for CC[C@H](C)[C@H](NC(=O)CN)C(=O)N[C@@H](Cc1ccccc1)C(=O)N[C@@H](CO)C(=O)N[C@@H](CCCCN)C(=O)N[C@@H](CC(C)C)C(=O)N[C@@H](C)C(=O)NCC(=O)N[C@@H](CCCCN)C(=O)N[C@H]1CSCc2ccc(nc2)-c2ccc(cn2)CSC[C@@H](C(=O)NCC(=O)N[C@@H](CC(C)C)C(=O)N[C@@H](CCCCN)C(=O)NCC(N)=O)NC(=O)[C@H]([C@@H](C)CC)NC(=O)[C@H](CC(C)C)NC(=O)[C@H](CC(C)C)NC(=O)[C@H](CC(N)=O)NC(=O)[C@H](CCCCN)NC(=O)[C@H]([C@@H](C)CC)NC1=O [compound 72] (H-GIFSKLAGKCIKNLLICGLKG-NH2; linker 10-17 via 2,2'Bipyridine(5,5'-diCH2); N-terminus assumed)?
A: IC50 [1]: 19 µg/mL (≈ 8.06 µM); Minimum Inhibitory Concentration (MIC) K. pneumoniae [2]: 8 µg/mL; Minimum Inhibitory Concentration (MIC) A. baumannii [3]: 4 µg/mL; Minimum Inhibitory Concentration (MIC) P. aeruginosa [4]: 32 µg/mL; Minimum Inhibitory Concentration (MIC) S. aureus [5]: 4 µg/mL; Minimum Inhibitory Concentration (MIC) E. coli [6]: 4 µg/mL

Q: Which results are given for CC[C@H](C)[C@H](NC(=O)CN)C(=O)N[C@@H](Cc1ccccc1)C(=O)N[C@@H](CO)C(=O)N[C@@H](CCCCN)C(=O)N[C@@H](CC(C)C)C(=O)N[C@@H](C)C(=O)NCC(=O)N[C@@H](CCCCN)C(=O)N[C@@H](CCCCN)C(=O)N[C@H](C(=O)N[C@@H](CCCCN)C(=O)N[C@H]1CSCc2ccc3cc(ccc3c2)CSC[C@@H](C(=O)NCC(N)=O)NC(=O)[C@H](CC(C)C)NC(=O)CNC(=O)[C@H](CO)NC(=O)[C@H]([C@@H](C)CC)NC(=O)[C@H](CC(C)C)NC(=O)[C@H](CC(C)C)NC1=O)[C@@H](C)CC [compound 82] (H-GIFSKLAGKKIKCLLISGLCG-NH2; linker 13-20 via Naphthalene(2,6-diCH2); N-terminus assumed)?
A: IC50 [7]: 23 µg/mL (≈ 10 µM); Minimum Inhibitory Concentration (MIC) K. pneumoniae [2]: 8 µg/mL; Minimum Inhibitory Concentration (MIC) A. baumannii [3]: 4 µg/mL; Minimum Inhibitory Concentration (MIC) P. aeruginosa [4]: 32 µg/mL; Minimum Inhibitory Concentration (MIC) S. aureus [5]: >64 µg/mL; Minimum Inhibitory Concentration (MIC) E. coli [6]: 4 µg/mL

Q: For CC[C@H](C)[C@H](NC(=O)CN)C(=O)N[C@@H](Cc1ccccc1)C(=O)N[C@@H](CO)C(=O)N[C@@H](CCCCN)C(=O)N[C@@H](CC(C)C)C(=O)N[C@@H](C)C(=O)NCC(=O)N[C@@H](CCCCN)C(=O)N[C@@H](CCCCN)C(=O)N[C@H](C(=O)N[C@@H](CCCCN)C(=O)N[C@@H](CC(N)=O)C(=O)N[C@H]1CSCc2ccc(nc2)-c2ccc(cn2)CSC[C@@H](C(N)=O)NC(=O)[C@H](CCCCN)NC(=O)[C@H](CC(C)C)NC(=O)CNC(=O)[C@H](CO)NC(=O)[C@H]([C@@H](C)CC)NC(=O)[C@H](CC(C)C)NC1=O)[C@@H](C)CC [compound 84] (H-GIFSKLAGKKIKNCLISGLKC-NH2; linker 14-21 via 2,2'Bipyridine(5,5'-diCH2); N-terminus assumed), which IC50 [7] is on record?
A: 105 µg/mL (≈ 43.7 µM)

Q: And the “Minimum Inhibitory Concentration (MIC) K. pneumoniae” value [2]?
A: 16 µg/mL

Q: What about the “Minimum Inhibitory Concentration (MIC) A. baumannii” value [3] of the same molecule?
A: 8 µg/mL

Q: And the “Minimum Inhibitory Concentration (MIC) P. aeruginosa” value [4]?
A: 32 µg/mL

Q: What about the “Minimum Inhibitory Concentration (MIC) S. aureus” value [5] of the same molecule?
A: >64 µg/mL

Q: And the “Minimum Inhibitory Concentration (MIC) E. coli” value [6]?
A: 4 µg/mL

Q: What does the source list for CC[C@H](C)[C@H](NC(=O)CN)C(=O)N[C@@H](Cc1ccccc1)C(=O)N[C@@H](CO)C(=O)N[C@@H](CCCCN)C(=O)N[C@@H](CC(C)C)C(=O)N[C@@H](C)C(=O)NCC(=O)N[C@@H](CCCCN)C(=O)N[C@@H](CCCCN)C(=O)N[C@H](C(=O)N[C@H]1CSCc2ccc3cc(ccc3c2)CSC[C@@H](C(=O)N[C@@H](CCCCN)C(=O)NCC(N)=O)NC(=O)CNC(=O)[C@H](CO)NC(=O)[C@H]([C@@H](C)CC)NC(=O)[C@H](CC(C)C)NC(=O)[C@H](CC(C)C)NC(=O)[C@H](CC(N)=O)NC1=O)[C@@H](C)CC [compound 78] (H-GIFSKLAGKKICNLLISGCKG-NH2; linker 12-19 via Naphthalene(2,6-diCH2); N-terminus assumed)?
A: IC50 [7]: 108 µg/mL (≈ 46.9 µM); Minimum Inhibitory Concentration (MIC) K. pneumoniae [2]: 64 µg/mL; Minimum Inhibitory Concentration (MIC) A. baumannii [3]: 16 µg/mL; Minimum Inhibitory Concentration (MIC) P. aeruginosa [4]: 64 µg/mL; Minimum Inhibitory Concentration (MIC) S. aureus [5]: >64 µg/mL; Minimum Inhibitory Concentration (MIC) E. coli [6]: 16 µg/mL

Q: Which IC50 [7] does the source give for CC[C@H](C)[C@H](NC(=O)CN)C(=O)N[C@@H](Cc1ccccc1)C(=O)N[C@@H](CO)C(=O)N[C@@H](CCCCN)C(=O)N[C@@H](CC(C)C)C(=O)N[C@@H](C)C(=O)NCC(=O)N[C@@H](CCCCN)C(=O)N[C@@H](CCCCN)C(=O)N[C@H]1CSCc2ccc(nc2)-c2ccc(cn2)CSC[C@@H](C(=O)N[C@@H](CC(C)C)C(=O)N[C@@H](CCCCN)C(=O)NCC(N)=O)NC(=O)[C@H](CO)NC(=O)[C@H]([C@@H](C)CC)NC(=O)[C@H](CC(C)C)NC(=O)[C@H](CC(C)C)NC(=O)[C@H](CC(N)=O)NC(=O)[C@H](CCCCN)NC1=O [compound 77] (H-GIFSKLAGKKCKNLLISCLKG-NH2; linker 11-18 via 2,2'Bipyridine(5,5'-diCH2); N-terminus assumed) here?
A: 159 µg/mL (≈ 66.2 µM)

Q: And the “Minimum Inhibitory Concentration (MIC) K. pneumoniae” value [2]?
A: 32 µg/mL

Q: What about the “Minimum Inhibitory Concentration (MIC) A. baumannii” value [3] of the same molecule?
A: 4 µg/mL

Q: And the “Minimum Inhibitory Concentration (MIC) P. aeruginosa” value [4]?
A: 32 µg/mL

Q: And the “Minimum Inhibitory Concentration (MIC) S. aureus” value [5]?
A: >64 µg/mL

Q: What about the “Minimum Inhibitory Concentration (MIC) E. coli” value [6] of the same molecule?
A: 4 µg/mL

Q: For CC[C@H](C)[C@H](NC(=O)CN)C(=O)N[C@@H](Cc1ccccc1)C(=O)N[C@@H](CO)C(=O)N[C@@H](CCCCN)C(=O)N[C@@H](CC(C)C)C(=O)N[C@@H](C)C(=O)N[C@H]1CSCc2ccc3cc(ccc3c2)CSC[C@@H](C(=O)N[C@H](C(=O)N[C@@H](CO)C(=O)NCC(=O)N[C@@H](CC(C)C)C(=O)N[C@@H](CCCCN)C(=O)NCC(N)=O)[C@@H](C)CC)NC(=O)[C@H](CC(C)C)NC(=O)[C@H](CC(N)=O)NC(=O)[C@H](CCCCN)NC(=O)[C@H]([C@@H](C)CC)NC(=O)[C@H](CCCCN)NC(=O)[C@H](CCCCN)NC1=O [compound 67] (H-GIFSKLACKKIKNLCISGLKG-NH2; linker 8-15 via Naphthalene(2,6-diCH2)), which IC50 [7] is on record?
A: 59 µg/mL (≈ 24.9 µM)

Q: And the “Minimum Inhibitory Concentration (MIC) K. pneumoniae” value [2]?
A: 8 µg/mL

Q: What about the “Minimum Inhibitory Concentration (MIC) A. baumannii” value [3] of the same molecule?
A: 4 µg/mL

Q: And the “Minimum Inhibitory Concentration (MIC) P. aeruginosa” value [4]?
A: 32 µg/mL

Q: And the “Minimum Inhibitory Concentration (MIC) S. aureus” value [5]?
A: >64 µg/mL

Q: And the “Minimum Inhibitory Concentration (MIC) E. coli” value [6]?
A: 4 µg/mL
